Experimental data reported in patent US10478421B1, “Sortilin binding compounds, formulations, and uses thereof” (University of Florida, priority 2016, dated 2019).
pKd: −log10 of the molar value. “And” between values parts separate entries of the source, which are not always exact repeats. Equal values may be shown once.

Tests used:
[1] = biological target: T1, human sortilin (Homo sapiens, UniProt Q99523); assay: Thermophoresis binding to human sortilin
T1 sequence (Q99523 78-831): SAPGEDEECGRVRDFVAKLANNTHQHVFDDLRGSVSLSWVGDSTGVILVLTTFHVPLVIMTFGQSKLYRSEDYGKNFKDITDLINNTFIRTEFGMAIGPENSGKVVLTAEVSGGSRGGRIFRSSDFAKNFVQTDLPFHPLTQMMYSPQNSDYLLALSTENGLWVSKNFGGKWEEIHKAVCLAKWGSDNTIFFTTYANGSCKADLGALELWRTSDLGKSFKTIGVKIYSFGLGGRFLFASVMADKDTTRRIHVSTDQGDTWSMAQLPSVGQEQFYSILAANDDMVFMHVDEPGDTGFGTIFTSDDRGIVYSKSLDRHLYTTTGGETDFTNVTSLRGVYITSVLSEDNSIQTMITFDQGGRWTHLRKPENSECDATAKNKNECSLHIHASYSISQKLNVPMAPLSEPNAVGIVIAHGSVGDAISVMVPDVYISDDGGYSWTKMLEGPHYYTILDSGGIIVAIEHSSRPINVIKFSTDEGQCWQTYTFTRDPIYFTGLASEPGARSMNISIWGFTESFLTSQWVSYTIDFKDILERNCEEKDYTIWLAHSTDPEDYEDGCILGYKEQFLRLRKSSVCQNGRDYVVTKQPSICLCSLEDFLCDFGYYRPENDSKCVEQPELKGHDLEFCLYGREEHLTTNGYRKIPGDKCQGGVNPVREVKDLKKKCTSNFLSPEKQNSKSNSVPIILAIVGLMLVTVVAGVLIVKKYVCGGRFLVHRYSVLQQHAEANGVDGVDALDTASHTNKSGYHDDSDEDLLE
Procedure: Due to inherent fluorescence of 541 small molecule, thermophoresis was performed in two different buffer conditions (PBS n=3 and MST n=2) and at two sets of concentration ranges. […] SPR indicates a high and low affinity binding site of cpd984 to human sortilin of hsortilin with Kd of about 200 μM and about 20 nM.

[2] = tested on: LDLR; assay: Cellular LDLR by immunoblot in McA cells; assay type: cell-based, rat; details: 10 μM, 18 h, 1% BSA/DMEM
Procedure: McA cells were incubated in 1% BSA/DMEM with DMSO, 541 (10 μM) or 984 (10 μM) for 18 h. Cellular proteins were extracted and analyzed by IB for LDLR (LS-C146979, 1:2000) (FIG. 5A) or PCSK9 (Ab125251, 1:2000) (FIG. 5B) using HRP-linked secondary antibody and ECL detection. Loading controls included β-ACTIN (Rockland ph600-401-886) and GAPDH (cb1001mAb (6C5). Band intensities were measured using ChemiDocXRS+ system and evaluated using ImageLab 5.1 software (BioRad). Results are average of triplicates ±S.D. PCSK9 is a known ligand for sortilin where sortilin acts as a chaperone for PCSK9 secretion.

[3] = biological target: T2, hsortilin (Homo sapiens, UniProt Q99523); assay: Surface plasmon resonance of NT and cpd984 on immobilized hsortilin (Ni-NTA chip, Example 1); assay type: binding
T2 construct: Human sortilin (hsortilin) (Ser78-Asn755) with C-terminal 6-His tag; purchased R&D Systems, Inc. (Minneapolis, Minn.)
T2 sequence (Q99523 78-755): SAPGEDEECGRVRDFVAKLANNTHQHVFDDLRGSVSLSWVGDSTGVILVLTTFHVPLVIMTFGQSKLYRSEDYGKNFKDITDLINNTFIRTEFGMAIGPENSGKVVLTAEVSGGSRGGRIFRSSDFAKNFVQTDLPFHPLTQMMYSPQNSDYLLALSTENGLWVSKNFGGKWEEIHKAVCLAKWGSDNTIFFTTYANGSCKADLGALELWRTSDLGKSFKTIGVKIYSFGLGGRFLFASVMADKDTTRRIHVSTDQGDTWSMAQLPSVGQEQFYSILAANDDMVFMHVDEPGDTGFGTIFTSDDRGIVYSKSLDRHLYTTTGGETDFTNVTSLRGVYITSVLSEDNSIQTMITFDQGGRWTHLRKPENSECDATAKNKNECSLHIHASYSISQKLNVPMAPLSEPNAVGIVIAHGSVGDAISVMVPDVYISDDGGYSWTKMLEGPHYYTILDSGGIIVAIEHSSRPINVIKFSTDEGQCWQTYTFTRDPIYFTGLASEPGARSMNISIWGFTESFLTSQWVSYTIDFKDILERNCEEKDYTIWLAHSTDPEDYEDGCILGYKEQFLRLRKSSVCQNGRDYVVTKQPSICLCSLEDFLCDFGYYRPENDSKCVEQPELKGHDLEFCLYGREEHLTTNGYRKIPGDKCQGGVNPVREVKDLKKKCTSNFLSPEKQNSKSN
Procedure: Surface plasmon resonance measurements were performed on a Biacore T200 instrument equipped with Ni-NTA sensor chips with ˜6800 response units (RU) for hsortilin covalently immobilized to the surface. HBS-DMSO running buffer (10 mM Hepes pH 7.4, 150 mM NaCl, 1% DMSO) was used at a flow rate of 30 μl/min and injections performed with times for association of 90 s, and dissociation of 300 s, followed by injection of buffer to regenerate the hsortilin surface. Binding was expressed in relative RU; the difference in response between the immobilized protein flow cell and the corresponding control flow cell.

[4] = tested on: McA cells; assay: Insulin signaling (pY-IRβ, p-AKT S473) by immunoblotting in McA cells; assay type: cell-based, rat; details: 10 μM, 18 h, then 250 nM insulin
Procedure: (FIG. 4A) McA cell lines with variable sortilin KD were incubated with vehicle (black bars) or with 10 μM cpd984 (gray bars) for 18 h (3-100 mm plates per condition). […] VLDL was isolated from media of each plate and VLDL-B100 was quantified by immuno slot blotting. Results presented are averages of the 3 plates ±S.D. (FIG. 4B) McA cells were incubated for 18 h in 1% BSA/DMEM±10 μM cpd984. McA cells were then stimulated with a time course of 250 nM insulin (0, 5, 10 and 15 min). IRβ and AKT, pY-IRβ, and p-AKT (S473) were evaluated by immunoblotting using protein and phosphospecific antibodies.
McA cell lysates were prepared and denatured proteins were separated by SDS-PAGE as described previously. Following electrophoretic transfer to PVDF membranes and blocking non-specific binding, membranes were incubated with primary antibodies overnight at 4° C. in blocking buffer. Antibody binding was detected by incubation for 1-2 h at room temperature with species specific secondary HRP-linked antibodies and developed using Amersham™ Prime reagent (GE Healthcare). Insulin signaling to IRβ and AKT were evaluated using nitrocellulose membranes (Bio-Rad) and phosphospecific (pY, p-AKT(Ser473) and mass specific antibodies. Chemiluminescence was measured using the ChemiDocXRS+system (Bio-Rad) and band intensities quantified using Image Lab 3.0.1 software (Bio-Rad).

SMILES: CN1CCC[C@H]1C(=O)Nc1cccc(NC(=O)CCc2ccccc2)c1 [cpd984, (2S)-1-methyl-N-{3-[(3-phenylpropanoyl)-amino]phenyl} pyrrolidine-2-carboxamide]
- pKd ([1]; high affinity binding range): 8.15
- pKd ([1]; low affinity binding range): 3.52 to 4.00
- effect on LDL receptors [2]: increase in LDL receptors
- SPR binding response ([3]; 100 nM NT injected with 500 μM cpd984): 64.1 RU and 64.7 RU
- averaged RU of NT co-injected with 984 ([3]; 100 nM NT with 500 μM cpd984, average): 64.4 RU
- increase in binding to hsortilin for co-injected NT over the combination of NT and cpd984 alone ([3]; 100 nM NT, 500 μM cpd984): 14.5 RU
- SPR binding response ([3]; 500 μM cpd984 alone): 45.1 RU and 44.8 RU
- RU of 500 μM cpd984 and 100 nM NT (sum of separate injections) ([3]; sum of averaged responses injected alone): 50.0 RU
- effect on insulin sensitivity (insulin-dependent pY of IRβ, pAKT) [4]: did not alter insulin sensitivity
